In patent US20090130229A1, “Antitumor uses of compound” (Cell Therapeutics, Inc., priority 2002, published 2009):

How the values were obtained:
NIH3T3^KITΔ559 cells = experiment: Reversion of transformed morphologic phenotype of NIH3T3 transfectants expressing KIT (Δ559); assay type: cell-based, mouse; details: 20 μM, 24 h, phase-contrast microscope
Method: (§1) FIG. 7. Effects of Cpd1 on cell lines expressing constitutively activated forms of Kit. […] Cells were treated with 20 μM Cpd1 and photographed 24 h later under a phase-contrast microscope (original magnification X 100). B): Inhibition of Kit (Δ559) autophosphorylation and expression in NIH3T3 transfectants. Cells were treated with Cpd 1 at the indicated concentrations, for 72 h. Cell lysates were immunoprecipitated with anti-Kit antibody and subjected to Western blotting with anti-p-Tyr or anti-Kit antibodies. C): Inhibition of expression and autocrine loop-activated autophosphorylation of c-Kit in the SCLC cell line N592. Cells were treated with Cpd 1 at the indicated concentrations, for 24 h. Whole cell lysates were subjected to Western blotting with anti-Kit antibody or with an antibody specifically recognizing the tyrosine phosphorylated/activated Kit (p-Kit).
The following human medullary thyroid carcinoma (MTC) cell lines were used in this study. The TT cell line derived from a MEN2A-associated MTC characterized by expression of the RET oncogene carrying the mutation C634W. The MZ-CRC-1 cell line derived from MEN2B-associated MTC characterized by expression of the RET oncogene carrying the mutation M918T. […]

[1] = test system: NIH3T3^MEN2A(C634R) cells; experiment: Antiproliferative assay (Coulter Counter), NIH3T3 MEN2A(C634R) versus parental NIH3T3; assay type: cell-based, murine; details: 72 h, dose-response curves
Method: FIG. 1. Effects of Cpd 1 on NIH3T3^MEN2A(C634R) transfectants expressing exogenous RET/MEN2A(C634R). […] Cells were exposed to 6 μM Cpd1 for 24 h and then photographed under a phase-contrast microscope (original magnification ×100). B) Antiproliferative effect. NIH3T3^MEN2A(C634R) cells and the parental NIH3T3 cells were treated with increasing concentrations of the drug for 72 h and then counted with a Coulter Counter. […] C) Inhibition of Ret/MEN2A(C634R) autophosphorylation and expression. Cells were treated with solvent (−) or 10 μM Cpd1 (+), for the indicated times. Whole cell-lysates were prepared and subjected to SDS-PAGE and Western blotting with anti-pTyr antibody. After stripping, the filter was reblotted with anti-Ret antibody. Arrows indicate the partial and fully glycosilated forms of the Ret/MEN2A receptor.
Cells were trypsinized after 3 days (NIH3T3 and NIH3T3 M12A cells) or 7 days (MTC cells) of treatment with Cpd1 and counted by a Coulter Counter (Coulter Electronics, Luton U.K.). The concentrations able to inhibit cell proliferation by 50% (IC50) were calculated from the dose-response curves. Each experiment was performed in duplicate

c-Kit = molecular target: T1, c-Kit (Homo sapiens, UniProt P10721); experiment: c-Kit autophosphorylation and expression in SCLC cell line N592; assay type: cell-based; details: N592 cells, 24 h
T1 construct: endogenous in cells; host or cells: N592 (human small cell lung carcinoma)
T1 sequence (P10721 26-976): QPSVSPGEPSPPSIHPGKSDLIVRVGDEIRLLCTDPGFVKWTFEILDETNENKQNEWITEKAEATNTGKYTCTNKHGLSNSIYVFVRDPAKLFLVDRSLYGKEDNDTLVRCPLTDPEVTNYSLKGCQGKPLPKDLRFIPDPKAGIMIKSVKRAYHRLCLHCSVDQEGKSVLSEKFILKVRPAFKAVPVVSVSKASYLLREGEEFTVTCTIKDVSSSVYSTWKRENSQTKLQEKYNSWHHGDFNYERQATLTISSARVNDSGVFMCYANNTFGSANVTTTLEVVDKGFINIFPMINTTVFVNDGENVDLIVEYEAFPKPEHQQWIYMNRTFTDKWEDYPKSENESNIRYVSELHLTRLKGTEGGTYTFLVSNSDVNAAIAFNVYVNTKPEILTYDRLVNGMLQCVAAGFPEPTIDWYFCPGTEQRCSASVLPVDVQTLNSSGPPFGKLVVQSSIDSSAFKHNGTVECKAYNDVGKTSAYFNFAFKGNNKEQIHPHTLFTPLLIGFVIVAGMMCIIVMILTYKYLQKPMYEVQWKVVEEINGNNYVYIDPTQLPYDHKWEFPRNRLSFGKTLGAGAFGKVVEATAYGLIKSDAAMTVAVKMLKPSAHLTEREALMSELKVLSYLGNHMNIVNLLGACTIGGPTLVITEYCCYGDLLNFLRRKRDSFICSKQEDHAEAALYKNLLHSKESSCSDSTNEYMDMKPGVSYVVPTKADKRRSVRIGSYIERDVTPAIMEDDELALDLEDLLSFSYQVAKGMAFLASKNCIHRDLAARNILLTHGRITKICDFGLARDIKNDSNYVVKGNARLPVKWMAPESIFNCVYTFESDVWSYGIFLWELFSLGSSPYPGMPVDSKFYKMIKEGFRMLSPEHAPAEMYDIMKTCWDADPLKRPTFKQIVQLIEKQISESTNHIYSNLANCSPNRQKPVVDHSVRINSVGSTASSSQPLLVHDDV
Method: as §1, with “(p-Kit). […]” for “(p-Kit).”
For whole-cell extract preparation, cells were lysed in sodium dodecyl sulfate (SDS) sample buffer (62.5 mM Tris-HCl (pH 6.8), 2% SDS) with 1 mM PMSF, 10 μg/ml pepstatin, 12.5 μg/ml leupeptin, 100 KIU aprotinin, 1 mM sodium orthovanadate, 1 mM sodium molybdate. Protein concentration was determined in appropriately diluted aliquots by the bicinchionic acid (BCA) method (Pierce, Rockford, Ill.), then samples were adjusted to a final concentration of 10% glycerol, 5% β-mercaptoethanol, 0.001% bromophenol blue. […]

COc1cc2c(cc1OC)/C(=C\c1ccc(O)cc1)C(=O)N2 [Cpd 1, (E)-1,3-dihydro-5,6-dimethoxy-3-[(4-hydroxyphenyl)methylene]-2H-indol-2-one]
Transformed morphologic phenotype (NIH3T3^KITΔ559 cells): Reversion of the transformed morphologic phenotype
Antiproliferative effect, sensitivity relative to parental NIH3T3 cells [1]: higher sensitivity
c-Kit autocrine loop-activated tyrosine phosphorylation (p-Kit) (c-Kit): dose-dependent drug-induced inhibition
c-Kit expression (c-Kit): dose-dependent drug-induced inhibition
